Assay results reported in patent US9718837B2, “Nitrogen-containing heterocyclic ring substituted dihydroartemisinin derivatives and use thereof” (Shenyang Pharmaceutical University, priority 2013, dated 2017).
pIC50: −log10 of the molar value.

Columns and labels:
[1] = tested on: Human Multidrug Resistant Breast Cancer Cells (MCF-7/Adr); assay: Cell growth inhibition by direct cell counting, MCF-7/Adr; format: cell-based; conditions: Homo sapiens, NCI/ADR-RES; MCF-7/Adr multidrug resistant cells; read-out: IG50 MCF-7/Adr
Method: (§1) Cells were taken out carefully from liquid nitrogen (Frozen pipes), and the cell freezing medium was thawed rapidly in water bath at 37° C. in order to rapidly pass through the temperature range of 0 to 5° C. within which the cell is easily damaged. Cell suspension was sucked with pipette gun and put it into centrifugal tubes under sterile condition, then was centrifuged for 3 min at 1300 r/min. The supernatant was gently discarded, and then added with a fresh medium to pipette and mix the cells. Finally, the cells were transferred into culture flasks, and cultured in a carbon dioxide incubator. The medium was changed once after 24 h.
(§2) After resuscitation, the cells were passed for 2-3 generations till they became stable, then they were used for the experiments. Each passage was based on the standard that all cells were spread over the bottoms of culture flasks.
(§3) Cell suspensions of a certain density (5×10^4 cells/mL) were plated at 24-well plate, 2 mL/well. Different concentration of drugs were added thereto, and incubated or some time. Then, cells were counted under the microscope. The ratio of total number of cells in test group to the total number of cells in control group is the cell growth inhibition rate under the concentration condition. The total number of cells in cell suspension, which were treated by drugs, could be counted by blood count board. Inhibition rate was calculated using the formula: […]
(§4) According to cell growth inhibition rate of each concentration of drugs, half inhibitory concentration could be calculated. (IG50 is the drug concentration, when cell growth inhibition rate was 50%.)
(§5) 7) The Results of the Growth Inhibitory Activity of the Compounds on Human Breast Cancer Cells (MCF-7) and Human Multidrug Resistant Breast Cancer Cells (MCF-7/Adr) were Listed in Table 3.

[2] = tested on: Human Breast Cancer Cells (MCF-7); assay: Cell growth inhibition by direct cell counting, MCF-7; format: cell-based; conditions: Homo sapiens, MCF7; MCF-7 cells; read-out: IG50 MCF-7
Method: as §1, §2, §3, §4, §5

[3] = tested on: Human leukemia cells (HL-60); assay: Cell growth inhibition by direct cell counting, HL-60; format: cell-based; conditions: HL-60 cells; drug concentration at 50% cell growth inhibition; read-out: IG50 (the source's name)
Method: as §1
(§6) Human leukemia cells (HL-60) were cultured in RPMI1640 medium containing 10% (v/v) fetal bovine serum, 100 U/mL penicillin and 100 μg/mL streptomycin. Murine leukemia cells (P388) and murine multidrug resistant leukemia cells (P388/Adr) were cultured in Eagle's minimum essential medium (MEM) containing 10% (v/v) fetal bovine serum, 100 U/mL penicillin and 100 μg/mL streptomycin. All of the above cell lines were incubated in 37° C. incubator with 5% carbon dioxide saturated humidity.
as §2, §3, §4

[4] = tested on: Murine leukemia cells (P388); assay: Cell growth inhibition by direct cell counting, P388; format: cell-based; conditions: read-out: IG50 P388
Method: as §1, §6, §2, §3, §4
(§7) 6) The Results of the Growth Inhibitory Activity of the Compounds on Murine Leukemia Cells (P388) and Murine Multidrug Resistant Leukemia Cells (P388/Adr) were Listed in Table 2.

[5] = tested on: murine multidrug resistant leukemia cells (P388/Adr); assay: Cell growth inhibition by direct cell counting, P388/Adr; format: cell-based; conditions: read-out: IG50 P388/Adr
Method: as §1, §6, §2, §3, §4, §7

Row | pIC50 [2] | melting point [°C] | Compound | pIC50 [3] | further results
1 | 5.81 | 172 to 173 | C[C@H]1[C@@H](Oc2ccc(CC(=O)Nc3ccccc3)cc2)O[C@@H]2O[C@]3(C)CC[C@@H]4[C@H](C)CC[C@@H]1[C@@]24OO3 [Example 47, (10S)—O-[4-(2-phenylamino-2-oxoethyl)phenyl]-dihydroartemisinin] | – | pIC50 [1]: 8.02
2 | – | – | CC1CCC2C(C)[C@@H](Oc3ccc(CN4CCC(N5CCCCC5)CC4)cc3)OC3OC4(C)CCC1C32OO4 (stereo partly drawn) [Example 6, (10S)—O-[4-[(4-(piperidinyl)piperidin-1-yl)methyl]phenyl]-dihydroartemisinin] | 7.10 | –
3 | – | – | CC1CCC2C(C)[C@@H](Oc3ccc(CN4CCN(CC=Cc5ccccc5)CC4)cc3)OC3OC4(C)CCC1C32OO4 (stereo partly drawn) [Example 17, 10-O-[4-[(4-cinnamylpiperazin-1-yl)methyl]phenyl]-(10S)-dihydroartemisinin] | 7.23 | –
4 | 5.49 | 73 to 74 | C[C@H]1[C@@H](Oc2ccc(CC(=O)N3CCCC3)cc2)O[C@@H]2O[C@]3(C)CC[C@@H]4[C@H](C)CC[C@@H]1[C@@]24OO3 [Example 33, (10S)—O-{4-[2-(pyrrolidin-1-yl)-2-oxoethyl]phenyl}-dihydroartemisinin] | – | pIC50 [1]: 6.91
5 | – | – | CCN1CCN(Cc2ccc(O[C@H]3O[C@@H]4O[C@@]5(C)CC[C@H]6[C@H](C)CC[C@@H]([C@H]3C)[C@@]46OO5)cc2)CC1 [Example 8, (10S)—O-[4-((4-ethylpiperazin-1-yl)methyl)phenyl]-dihydroartemisinin] | 7.08 | –
6 | 7.20 | 160 to 163 | C[C@H]1[C@@H](Oc2ccc(/C=C/C(=O)Oc3ccc(/C=C/C(=O)N4CCCCC4)cc3)cc2)O[C@@H]2O[C@]3(C)CC[C@H]4[C@H](C)CC[C@@H]1[C@@]24OO3 [Example 31, 4-[(10S)-dihydroartemisinin-10-O-yl]phenyl-acrylic acid-4-[3-oxo-3-(piperidin-1-yl)-1-(E)-propen-1-yl]phenyl ester] | – | –
7 | 6.68 | 65 to 67 | C[C@H]1[C@@H](Oc2ccc(Cn3ccnc3)cc2)O[C@@H]2O[C@]3(C)CC[C@H]4[C@H](C)CC[C@@H]1[C@@]24OO3 [Example 2, (10S)—O-[4-((imidazol-1-yl)methyl)phenyl]-dihydroartemisinin] | – | pIC50 [1]: 6.20
8 | – | – | CCN1CCN(C(=O)/C=C/c2ccc(O[C@H]3OC4OC5(C)CCC6C(C)CCC(C3C)C46OO5)cc2)CC1 (stereo partly drawn) [Example 25, (10S)—O-{4-[3-oxo-3-(4-ethylpiperazin-1-yl)-1-(E)-propen-1-yl]phenyl}-dihydroartemisinin] | – | pIC50 [4]: 6.82; pIC50 [5]: 6.65
9 | – | – | C[C@H]1[C@@H](Oc2ccc(/C=C/C(=O)N3CCN(C)CC3)cc2)O[C@@H]2O[C@@]3(C)CC[C@H]4[C@H](C)CC[C@@H]1[C@@]24OO3 [Example 24] | – | pIC50 [4]: 6.52; pIC50 [5]: 6.04
10 | – | – | C[C@H]1[C@@H](Oc2ccc(CN3CCN(C)CC3)cc2)O[C@@H]2O[C@@]3(C)CC[C@H]4[C@H](C)CC[C@@H]1[C@@]24OO3 [Example 7, (10S)—O-[4-((4-methylpiperazin-1-yl)methyl)phenyl]-dihydroartemisinin] | 6.92 | –
11 | – | – | CC1CCC2C(C)C(Oc3ccc(CN4CCN(Cc5ccccc5)CC4)cc3)OC3OC4(C)CCC1C32OO4 [Example 16, 10-O-[4-[(4-benzylpiperazin-1-yl)methyl]phenyl]-(10S)-dihydroartemisinin] | 6.98 | –
12 | 6.91 | 165 to 167 | C[C@H]1[C@@H](Oc2ccc(/C=C/C(=O)N3CCCC3)cc2)O[C@@H]2O[C@]3(C)CC[C@H]4[C@H](C)CC[C@@H]1[C@@]24OO3 [Example 20, (10S)—O-{4-[3-oxo-3-(pyrrolidin-1-yl)-1-(E)-propen-1-yl]phenyl}-dihydroartemisinin] | – | –
13 | – | – | CC1CCC2C(C)[C@@H](Oc3ccc(CN4CCN(C(C)C)CC4)cc3)OC3OC4(C)CCC1C32OO4 (stereo partly drawn) [Example 9, (10S)—O-[4-((4-isopropylpiperazin-1-yl)methyl)phenyl]-dihydroartemisinin] | 7.15 | –
